How the values were obtained:
[1] = Inhibition of full-length DC-SIGN (unknown origin) expressed in human monocyte derived dendritic cells assessed as inhibition of binding to recombinant HCMV gB using flow cytometry
[2] = Inhibition of DC-SIGN extracellular domain (unknown origin) binding to HIV gp120 by surface plasmon resonance analysis
[3] = Inhibition of DC-SIGN (unknown origin) expressed in human Jurkat cells assessed as inhibition of EBOV-pseudotyped virus infection measured after 48 hrs by luciferase assay

| SMILES | IC50 [1] | IC50 [2] | IC50 [3] |
| --- | --- | --- | --- |
| COC(=O)CNC(=O)CN(Cc1cn(CCCOc2c3cc(C(C)(C)C)cc2Cc2cc(C(C)(C)C)cc(c2OCCCn2cc(CN(CC(=O)NCC(=O)OC)C(=O)CCCCCn4cc(CO[C@@H]5O[C@@H](C)[C@@H](O)[C@@H](O)[C@@H]5O)nn4)nn2)Cc2cc(C(C)(C)C)cc(c2OCCCn2cc(CN(CC(=O)NCC(=O)OC)C(=O)CCCCCn4cc(CO[C@@H]5O[C@@H](C)[C@@H](O)[C@@H](O)[C@@H]5O)nn4)nn2)Cc2cc(C(C)(C)C)cc(c2OCCCn2cc(CN(CC(=O)NCC(=O)OC)C(=O)CCCCCn4cc(CO[C@@H]5O[C@@H](C)[C@@H](O)[C@@H](O)[C@@H]5O)nn4)nn2)C3)nn1)C(=O)CCCCCn1cc(CO[C@@H]2O[C@@H](C)[C@@H](O)[C@@H](O)[C@@H]2O)nn1 | 0.777 µM | 26.5 µM | 0.218 µM |
| CC(C)(C)c1cc2c(OCCCn3cc(CN(O)C(=O)CCCCCn4cc(CO[C@H]5O[C@H](CO)[C@@H](O)[C@H](O)[C@@H]5O)nn4)nn3)c(c1)Cc1cc(C(C)(C)C)cc(c1OCCCn1cc(CN(O)C(=O)CCCCCn3cc(CO[C@H]4O[C@H](CO)[C@@H](O)[C@H](O)[C@@H]4O)nn3)nn1)Cc1cc(C(C)(C)C)cc(c1OCCCn1cc(CN(O)C(=O)CCCCCn3cc(CO[C@H]4O[C@H](CO)[C@@H](O)[C@H](O)[C@@H]4O)nn3)nn1)Cc1cc(C(C)(C)C)cc(c1OCCCn1cc(CN(O)C(=O)CCCCCn3cc(CO[C@H]4O[C@H](CO)[C@@H](O)[C@H](O)[C@@H]4O)nn3)nn1)C2 | 0.156 µM | 37.5 µM | 0.634 µM |
| COC(=O)CNC(=O)CN(Cc1cn(CCCOc2c3cc(C(C)(C)C)cc2Sc2cc(C(C)(C)C)cc(c2OCCCn2cc(CN(CC(=O)NCC(=O)OC)C(=O)CCCCCn4cc(CO[C@@H]5O[C@@H](C)[C@@H](O)[C@@H](O)[C@@H]5O)nn4)nn2)Sc2cc(C(C)(C)C)cc(c2OCCCn2cc(CN(CC(=O)NCC(=O)OC)C(=O)CCCCCn4cc(CO[C@@H]5O[C@@H](C)[C@@H](O)[C@@H](O)[C@@H]5O)nn4)nn2)Sc2cc(C(C)(C)C)cc(c2OCCCn2cc(CN(CC(=O)NCC(=O)OC)C(=O)CCCCCn4cc(CO[C@@H]5O[C@@H](C)[C@@H](O)[C@@H](O)[C@@H]5O)nn4)nn2)S3)nn1)C(=O)CCCCCn1cc(CO[C@@H]2O[C@@H](C)[C@@H](O)[C@@H](O)[C@@H]2O)nn1 | 1 µM | 17 µM | 0.602 µM |
| COC(=O)CNC(=O)CN(Cc1cn(CCCOc2c3cc(C(C)(C)C)cc2Sc2cc(C(C)(C)C)cc(c2OCCCn2cc(CN(CC(=O)NCC(=O)OC)C(=O)CCCCCn4cc(CO[C@H]5O[C@H](CO)[C@@H](O)[C@H](O)[C@@H]5O)nn4)nn2)Sc2cc(C(C)(C)C)cc(c2OCCCn2cc(CN(CC(=O)NCC(=O)OC)C(=O)CCCCCn4cc(CO[C@H]5O[C@H](CO)[C@@H](O)[C@H](O)[C@@H]5O)nn4)nn2)Sc2cc(C(C)(C)C)cc(c2OCCCn2cc(CN(CC(=O)NCC(=O)OC)C(=O)CCCCCn4cc(CO[C@H]5O[C@H](CO)[C@@H](O)[C@H](O)[C@@H]5O)nn4)nn2)S3)nn1)C(=O)CCCCCn1cc(CO[C@H]2O[C@H](CO)[C@@H](O)[C@H](O)[C@@H]2O)nn1 |  | 14.6 µM |  |
| CO[C@H]1O[C@H](CO)[C@@H](O)[C@H](O)[C@@H]1O [methyl alpha-D-mannoside] |  |  | 1270 µM |
| C[C@@H]1O[C@@H](OCc2cn(CCCCCC(=O)N(O)Cc3cn(CCCOc4c5cc(C(C)(C)C)cc4Cc4cc(C(C)(C)C)cc(c4OCCCn4cc(CN(O)C(=O)CCCCCn6cc(CO[C@@H]7O[C@@H](C)[C@@H](O)[C@@H](O)[C@@H]7O)nn6)nn4)Cc4cc(C(C)(C)C)cc(c4OCCCn4cc(CN(O)C(=O)CCCCCn6cc(CO[C@@H]7O[C@@H](C)[C@@H](O)[C@@H](O)[C@@H]7O)nn6)nn4)Cc4cc(C(C)(C)C)cc(c4OCCCn4cc(CN(O)C(=O)CCCCCn6cc(CO[C@@H]7O[C@@H](C)[C@@H](O)[C@@H](O)[C@@H]7O)nn6)nn4)C5)nn3)nn2)[C@@H](O)[C@H](O)[C@@H]1O | 0.188 µM | 26.8 µM | 0.289 µM |
| COC(=O)CNC(=O)CN(Cc1cn(CCCOc2c3cc(C(C)(C)C)cc2Cc2cc(C(C)(C)C)cc(c2OCCCn2cc(CN(CC(=O)NCC(=O)OC)C(=O)CCCCCn4cc(CO[C@H]5O[C@H](CO)[C@@H](O)[C@H](O)[C@@H]5O)nn4)nn2)Cc2cc(C(C)(C)C)cc(c2OCCCn2cc(CN(CC(=O)NCC(=O)OC)C(=O)CCCCCn4cc(CO[C@H]5O[C@H](CO)[C@@H](O)[C@H](O)[C@@H]5O)nn4)nn2)Cc2cc(C(C)(C)C)cc(c2OCCCn2cc(CN(CC(=O)NCC(=O)OC)C(=O)CCCCCn4cc(CO[C@H]5O[C@H](CO)[C@@H](O)[C@H](O)[C@@H]5O)nn4)nn2)C3)nn1)C(=O)CCCCCn1cc(CO[C@H]2O[C@H](CO)[C@@H](O)[C@H](O)[C@@H]2O)nn1 |  | 45.3 µM |  |
